Earlier results, collected in patent US7332520B2, “Fused indoles as dipeptidyl peptidase inhibitors for the treatment or prevention of diabetes” (Merck & Co., Inc., priority 2003, dated 2008).

What was measured:
[1] = system: hematopoiesis; settings: mouse, cyclophosphamide-induced neutropenia
[2] = target: T1, DP-IV (Homo sapiens, UniProt P27487)
T1 construct: GRF is rapidly degraded in plasma to GRF[3-44]
T1 sequence (P27487 39-766 limits assumed): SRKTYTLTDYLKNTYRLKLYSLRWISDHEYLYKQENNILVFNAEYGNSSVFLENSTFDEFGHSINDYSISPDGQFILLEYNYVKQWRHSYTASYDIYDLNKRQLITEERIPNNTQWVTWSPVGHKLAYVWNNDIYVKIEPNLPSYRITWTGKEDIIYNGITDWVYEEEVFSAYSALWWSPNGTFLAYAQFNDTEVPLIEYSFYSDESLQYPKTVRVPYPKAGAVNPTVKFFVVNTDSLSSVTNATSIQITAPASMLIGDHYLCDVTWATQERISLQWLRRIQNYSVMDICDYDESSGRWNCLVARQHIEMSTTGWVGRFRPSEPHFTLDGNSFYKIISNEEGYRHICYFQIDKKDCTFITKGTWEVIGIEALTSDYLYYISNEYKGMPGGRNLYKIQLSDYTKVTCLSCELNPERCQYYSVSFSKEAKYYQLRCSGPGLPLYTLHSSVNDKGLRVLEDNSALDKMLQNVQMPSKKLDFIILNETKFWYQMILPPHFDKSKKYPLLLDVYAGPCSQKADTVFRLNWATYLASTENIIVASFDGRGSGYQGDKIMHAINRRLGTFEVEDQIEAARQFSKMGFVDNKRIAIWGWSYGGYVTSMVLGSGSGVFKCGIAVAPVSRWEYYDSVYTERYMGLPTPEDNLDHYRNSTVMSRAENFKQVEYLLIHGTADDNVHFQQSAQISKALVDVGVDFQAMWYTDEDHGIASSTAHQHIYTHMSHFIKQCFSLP

## CC(C)[C@H](N)C(=O)N1CCC[C@H]1B(O)O [Val-Boro-Pro]
[1]
  hematopoiesis: stimulated hematopoiesis

## CC[C@H](C)[C@H](N)C(=O)N1CCC[C@H]1C(=O)N[C@H](C(=O)O)[C@@H](C)CC [diprotin A]
[2]
  degradation of GRF in plasma to GRF[3-44]: prevented
